# How the values were obtained:
# IMR-32 = test: Cytotoxicity against human IMR32 cells at 60 ug/ml by MTT assay; type: functional
# [1] = Anticancer activity against mouse EAC cells xenografted in Swiss albino mouse assessed as inhibition of ascitic fluid weight; type: functional, Ehrlich
# [2] = Anticancer activity against mouse EAC cells xenografted in Swiss albino mouse assessed as inhibition of ascitic cell count; type: functional, Ehrlich
# [3] = Anticancer activity against mouse EAC cells xenografted in Swiss albino mouse assessed as inhibition of ascitic fluid weight at 1 mg/kg; type: functional; conditions: Ehrlich
# [4] = Anticancer activity against mouse EAC cells xenografted in Swiss albino mouse assessed as inhibition of ascitic cell count at 1 mg/kg; type: functional; conditions: Ehrlich
Structure (SMILES),inhibition at 60 µg/mL (IMR-32) [%],inhibition (INH) [1] [%],inhibition (INH) [2] [%],inhibition in vivo at 1 mg/kg [3] [%],inhibition in vivo at 1 mg/kg [4] [%]
CC(C)CNC(=O)CCC(NS(=O)(=O)c1ccc(Br)cc1)C(=O)NCC(C)C (stereo not given),17.1,54,50.8,,
O=C(CCC(NS(=O)(=O)c1ccc(Br)cc1)C(=O)NC1CCCCC1)NC1CCCCC1 (stereo not given),18.4,43,47,,
O=C(CCC(NS(=O)(=O)c1ccc(Cl)c(Cl)c1)C(=O)NC1CCCCC1)NC1CCCCC1 (stereo not given),24,16.8,17.4,,
O=C(CCC(NS(=O)(=O)c1cc(Cl)ccc1Cl)C(=O)NCc1ccccc1)NCc1ccccc1 (stereo not given),13.4,49.9,53.1,,
O=C(CCC(NS(=O)(=O)c1ccc(Cl)c(Cl)c1)C(=O)NCc1ccccc1)NCc1ccccc1 (stereo not given),11.4,40,45.3,,
CCNC(=O)CCC(NS(=O)(=O)c1cc(C)ccc1Cl)C(=O)NCC (stereo not given),31.8,28.1,32.3,,
CCNC(=O)CCC(NS(=O)(=O)c1ccc(C(C)(C)C)cc1)C(=O)NCC (stereo not given),58.4,30.8,21.6,,
CC(C)CNC(=O)CCC(NS(=O)(=O)c1cc(Cl)ccc1Cl)C(=O)NCC(C)C (stereo not given),20.4,42.5,79.3,,
CCCCCCNC(=O)CCC(NS(=O)(=O)c1cc(Cl)ccc1Cl)C(=O)NCCCCCC (stereo not given),12.4,31.9,52.9,,
CC(C)NC(=O)CCC(NS(=O)(=O)c1ccc(C(C)(C)C)cc1)C(=O)NC(C)C (stereo not given),65.6,44.7,34.1,,
Cc1ccc(S(=O)(=O)NC(CCC(N)=O)C(N)=O)c(C)c1 (stereo not given),28.2,31.2,35.2,,
O=C(CCC(NS(=O)(=O)c1ccc(Br)cc1)C(=O)Nc1ccccc1)Nc1ccccc1 (stereo not given),10,63.4,66.5,,
CCCNC(=O)CCC(NS(=O)(=O)c1cc(C)ccc1Cl)C(=O)NCCC (stereo not given),14.9,,,,
CC(C)(C)c1ccc(S(=O)(=O)NC(CCC(N)=O)C(N)=O)cc1 (stereo not given),,27.5,42.15,,
CC(C)NC(=O)CCC(NS(=O)(=O)c1cc(Cl)ccc1Cl)C(=O)NC(C)C (stereo not given),16.7,38.5,73.3,,
Cc1ccc(Cl)c(S(=O)(=O)NC(CCC(=O)NCC(C)C)C(=O)NCC(C)C)c1 (stereo not given),,27.9,40,,
Cc1ccc(Cl)c(S(=O)(=O)NC(CCC(=O)NC2CCCCC2)C(=O)NC2CCCCC2)c1 (stereo not given),49.7,40.2,35,,
Cc1ccc(Cl)c(S(=O)(=O)NC(CCC(=O)NCc2ccccc2)C(=O)NCc2ccccc2)c1 (stereo not given),,36.5,50.5,,

Structure (SMILES),inhibition at 60 µg/mL (IMR-32) [%],inhibition (INH) [1] [%],inhibition (INH) [2] [%],inhibition in vivo at 1 mg/kg [3] [%],inhibition in vivo at 1 mg/kg [4] [%]
CCCCCNC(=O)CCC(NS(=O)(=O)c1cc(C)ccc1Cl)C(=O)NCCCCC (stereo not given),14.7,33.3,47.1,,
CCCCCCNC(=O)CCC(NS(=O)(=O)c1cc(C)ccc1Cl)C(=O)NCCCCCC (stereo not given),11.3,24.2,33.4,,
Cc1ccc(Cl)c(S(=O)(=O)NC(CCC(N)=O)C(N)=O)c1 (stereo not given),25.8,36.5,28.6,,
CCCCNC(=O)CCC(NS(=O)(=O)c1ccc(C)cc1C)C(=O)NCCCC (stereo not given),46.1,46.1,35.6,,
CCCCCNC(=O)CCC(NS(=O)(=O)c1ccc(Cl)c(Cl)c1)C(=O)NCCCCC (stereo not given),20.8,28.1,10,,
CCCCNC(=O)CCC(NS(=O)(=O)c1cc(C)ccc1Cl)C(=O)NCCCC (stereo not given),18,25.2,43.5,,
Cc1ccc(Cl)c(S(=O)(=O)NC(CCC(=O)Nc2ccccc2)C(=O)Nc2ccccc2)c1 (stereo not given),,41.2,45.5,,
CCCCNC(=O)CCC(NS(=O)(=O)c1cc(Cl)ccc1Cl)C(=O)NCCCC (stereo not given),15.8,34,57.9,,
CCCCCCNC(=O)CCC(NS(=O)(=O)c1ccc(C)cc1C)C(=O)NCCCCCC (stereo not given),66,38.4,52.1,,
O=C(CCC(NS(=O)(=O)c1ccc(Br)cc1)C(=O)NCc1ccccc1)NCc1ccccc1 (stereo not given),,70,48.9,,
CCCCCNC(=O)CCC(NS(=O)(=O)c1cc(Cl)ccc1Cl)C(=O)NCCCCC (stereo not given),12.2,41.2,61.1,,
Cc1ccc(Cl)c(S(=O)(=O)NC(CCC(=O)NC(C)C)C(=O)NC(C)C)c1 (stereo not given),29.8,81.5,53,,
CCNC(=O)CCC(NS(=O)(=O)c1cc(Cl)ccc1Cl)C(=O)NCC (stereo not given),12.9,60.5,67.5,,
O=C(CCC(NS(=O)(=O)c1cc(Cl)ccc1Cl)C(=O)Nc1ccccc1)Nc1ccccc1 (stereo not given),22.9,35.2,71.1,,
[N-]=[N+]=CC(=O)CC[C@H](N)C(=O)O [6-DIAZO-5-OXO-L-NORLEUCINE],,,,100,100
N#[N+]/C=C(\[O-])OC[C@H](N)C(=O)O [AZASERIN],,,,100,100
CO[C@@]12[C@H](COC(N)=O)C3=C(C(=O)C(C)=C(N)C3=O)N1C[C@@H]1N[C@@H]12 [MITOMYCIN],,,,100,100

# — ChEMBL document CHEMBL1152857, “Possible anticancer agents: QSAR analogs of glutamamide: synthesis and pharmacological activity of 1,5-N,N'-disubstituted-2-(substituted benzenesulphonyl) glutamamides” (2009)
